Results taken from patent publication EP4737486A1, “HYALURONIC ACID DERIVATIVE, AND PREPARATION METHOD THEREFOR AND USE THEREOF” (priority 2023, dated 2025).

Tested on: blood
Assay: Anticoagulant activity by prothrombin time in rat blood (CoaguChek X)
Parameters: species or system male SD rats
Details: 278 µg/mL in rat blood, n = 3; versus normal saline and no-addition groups
Protocol: The anticoagulant activity of the compound was assessed by measuring prothrombin time according to the reference [Sulakshan Sulakshana et al., Anesth Essays Res., 2021, 15(4): 341-347].
The experimental method and steps are as follows: • 1) About 2 mL of blood was obtained from the abdominal aorta of male SD rats (8 weeks old). One sample corresponded to one rat, and n = 3. • 2) Each substance was added to the blood at a concentration of 27.8 µg/mL or 278 µg/mL, and mixing was performed (generally, 27.8 µg/mL was used for transfusion). • 3) To assess the anticoagulant effect of the samples, prothrombin time was measured using CoaguChek X (Sekisui Medical).
• 1) Normal saline; • 2) Unfractionated heparin (UFH), sodium heparin injection 5000 units/5 mL, Mochida (average molecular weight: 15000); • 3) Fragmin: low molecular weight heparin, average molecular weight of 5000, 5000 units/5 mL; • 4) Arixtra: […], average molecular weight of 1728 (5 mers), 5000 units/5 mL; • 5) No addition.

Question: `CO[C@H]1O[C@H](COS(=O)(=O)O)[C@@H](O[C@@H]2O[C@@H](C(=O)O)[C@@H](O[C@H]3O[C@H](COS(=O)(=O)O)[C@@H](O[C@@H]4O[C@H](C(=O)O)[C@@H](O[C@H]5O[C@H](COS(=O)(=O)O)[C@@H](O)[C@H](O)[C@H]5NS(=O)(=O)O)[C@H](O)[C@H]4O)[C@H](OS(=O)(=O)O)[C@H]3NS(=O)(=O)O)[C@H](O)[C@H]2OS(=O)(=O)O)[C@H](O)[C@H]1NS(=O)(=O)O` [Arixtra] was tested. Which prothrombin time did it give?
Answer: The prothrombin time was “significantly longer”.
